Reference: patent US20170152258A9, “Substituted Pyridopyrazines as Syk Inhibitors” (HUTCHISON MEDIPHARMA LIMITED, priority 2012, published 2017)

How the values were obtained:
[1] = system: RBL-2H3 cells; test: IgE-induced Beta-hexosaminidase secretion in RBL-2H3 cells; type: cell-based; details: Rattus norvegicus, RBL-2H3, IgE-induced Beta-hexosaminidase secretion, DNP-BSA stimulation
Method: For the determination of IgE-induced Beta-hexosaminidase secretion, RBL-2H3 cells (SIBS) are seeded in 96 well plates at 4×10^4 cells per well and incubated in MEM media with 15% FBS and Glutamine ([…]) for 4 hours and sensitized with 0.5 ug/ml of SPE-7 overnight. Cells are washed 3 times with Tyrode's buffer and incubated in the presence or absence of various concentrations of the testing compound for 20 min at 37° C., 5% CO2. Cells are stimulated by adding 10 uL of DNP-BSA solution (150 ng/mL) to each well and incubating for 45 minutes at 37° C., 5% CO2. Then, 45 μL of the supernatant is taken and incubated with 100 μL of 1 mM 4-Nitrophenyl N-acetyl-β-D-glucosaminide (Sigma, Cat. No. N9376), which is diluted in 0.05 M citrate buffer (pH 4.5), for 1.5 hr at 37° C. The reactions are quenched by adding 185 μL of 0.05 M sodium carbonate buffer (pH 10.0). Plates are read at 405 nm on Multiskan (MK 3).

[2] = molecular target: Syk kinase (Homo sapiens, UniProt P43405); test: SYK Enzymatic Assay (Z-LYTE Tyr 2 peptide); type: biochemical; details: 8 concentrations 1 μM down to 0.0003 μM
Method: Syk kinase assay are performed in vitro using Kit-Tyr 2 Peptide (Invitrogen, Cat. No. PV3191) and in a 384-well assay plate. […] The 384-well assay plate (Corning, Cat. No. 3575) is mixed and incubated at room temperature for 1 hour. 10 μL of the Development Solution (prepared by diluting Development Reagent A (Cat. No. PV3297) to 1/32 with Development Buffer (Cat. No. PV3127)) is then added to each well, mixed and incubated at room temperature for another 1 hour. The reactions are then stopped by adding 10 μL of the Stop Reagent (Invitrogen, Cat. No. PV3094), and the plate is read with Wallac 1420 VICTOR^3 Multilabel Counter (PerkinElmer™) at 445 nm and 520 nm fluorescence. All compounds are tested at 8 concentrations (1 μM down to 0.0003 μM) using a 1:3 serial dilution scheme.

SMILES	IC50 [1] [nM]	IC50 [2] [nM]
NS(=O)(=O)N1CCO[C@H](COc2nc(-c3ccc(N4CCCCC4)cc3)cc3nccnc23)C1 [Compound 28]	142	40
NS(=O)(=O)N1CCO[C@H](COc2nc(-c3ccc(N4CCC(F)(F)CC4)cc3)cc3nccnc23)C1 [Compound 29]	106	66
NS(=O)(=O)N1CCO[C@H](COc2nc(-c3ccc(N4CCCC4)cc3)cc3nccnc23)C1 [Compound 30]	277	43
COC1CCN(c2ccc(-c3cc4nccnc4c(OC[C@@H]4CN(S(C)(=O)=O)CCO4)n3)cc2)CC1 [Compound 31]	56	17
CN(C)c1ccc(-c2cc3nccnc3c(OC[C@@H]3CN(C(=O)C(F)F)CCO3)n2)cc1F [Compound 32]	76	60
CC(=O)N1CCC(c2ccc(-c3cc4nccnc4c(OC[C@@H]4CN(S(C)(=O)=O)CCO4)n3)cc2)CC1 [Compound 33]	64	27
CNc1ccc(-c2cc3nccnc3c(OC[C@@H]3CN(S(C)(=O)=O)CCO3)n2)cc1 [Compound 36]	97	55
COc1ccc(-c2cc3nccnc3c(OC[C@@H]3CN(S(C)(=O)=O)CCO3)n2)cc1 [Compound 38]	278	83
Cn1ccc2cc(-c3cc4nccnc4c(OC[C@@H]4CN(S(C)(=O)=O)CCO4)n3)ccc21 [Compound 39]	76	33
COc1ccc(-c2cc3nccnc3c(OC[C@@H]3CN(S(C)(=O)=O)CCO3)n2)cc1OC [Compound 43]	37	13
COC1CCN(c2ccc(-c3cc4nccnc4c(OC[C@@H]4CN(C(C)=O)CCO4)n3)cc2)CC1 [Compound 48]	136	87
CC(=O)N1CCO[C@H](COc2nc(-c3ccc(N4CCN(CCO)CC4)cc3)cc3nccnc23)C1 [Compound 49]	315	87
CNc1ccc(-c2cc3nccnc3c(OC[C@@H]3CN(C(=O)[C@H]4CCOC4)CCO3)n2)cc1 [Compound 50]	108	64
CNc1ccc(-c2cc3nccnc3c(OC[C@@H]3CN(C(=O)[C@H]4CCCO4)CCO3)n2)cc1 [Compound 51]	159	94
CNc1ccc(-c2cc3nccnc3c(OC[C@@H]3CN(S(C)(=O)=O)CCO3)n2)cc1F [Compound 52]	47	42
CN(C)c1ccc(-c2cc3nccnc3c(OC[C@@H]3CN(S(C)(=O)=O)CCO3)n2)cc1F [Compound 53]	37	32
CC(=O)N1CCC(c2ccc(-c3cc4nccnc4c(OC[C@@H]4CN(C(C)=O)CCO4)n3)cc2)CC1 [Compound 54]	257	73
CNS(=O)(=O)N1CCO[C@H](COc2nc(-c3ccc(N4CCOCC4)cc3)cc3nccnc23)C1 [Compound 55]	144	65
CS(=O)(=O)N1CCC(c2ccc(-c3cc4nccnc4c(OC[C@@H]4CN(S(C)(=O)=O)CCO4)n3)cc2)CC1 [Compound 57, (S)-4-(methylsulfonyl)-2-((7-(4-(1-(methylsulfonyl)piperidin-4-yl)phenyl)pyrido[4,3-b]pyrazin-5-yloxy)methyl)morpholine]	82	14
CS(=O)(=O)N1CCO[C@H](COc2nc(-c3ccc(C4CCN(CCO)CC4)cc3)cc3nccnc23)C1 [Compound 58, (S)-2-(4-(4-(5-((4-(methylsulfonyl)morpholin-2-yl)methoxy)pyrido[3,4-b]pyrazin-7-yl)phenyl)piperidin-1-yl)ethanol]	990	31
COCCN1CCC(c2ccc(-c3cc4nccnc4c(OC[C@@H]4CN(S(C)(=O)=O)CCO4)n3)cc2)CC1 [Compound 59]	117	30
O=C(C(F)F)N1CCO[C@H](COc2nc(-c3ccc(N4CCOCC4)cc3)cc3nccnc23)C1 [Compound 61]	29	27
